# US20230256049A1, “MATERIALS AND METHODS FOR THE PREVENTION AND TREATMENT OF VIRAL RESPIRATORY DISEASES” (priority 2020, published 2023)
# pEC50: −log10 of the molar value. Read-outs that look alike come from different tables or passages of the source. Where a SMILES comes first, the peptide text is derived from it. [ ]: non-standard residue; d: D form.
# Tests used:
# [1] = tested on: SARS-CoV-2 (2019-nCoV/USA-WA1/2020 strain)
# SARS-CoV-2 = conditions: cited from earlier work; for treatment outcome in SARS-CoV-2 / COVID-19 patients: remdesivir: double-blind, randomized, placebo-controlled trial in hospitalized adults; for patient morbidity risk: treatment of SARS-CoV-2
# [2] = tested on: HIV-1 (primary R5 JR-CSF); test: HIV-1 in vitro model, HeLa TZM reporter cells (alanine scan); type: cell-based; conditions: β-galactosidase at 48 h
# [3] = tested on: SARS-CoV-2 (2019-nCoV/USA-WA1/2020 strain); conditions: VERO E6 (FIG. 5C)
smiles,measurement,setting,value
"CC[C@@H](C)[C@@H](NC(=O)[C@@H](CC(=O)O)NC(=O)[C@@H](CCCNC(=N)N)NC(=O)[C@@H](CC(C)C)NC(=O)[C@@H](Cc1c[nH]c2ccccc12)NC(=O)[C@H](N)CO)C(=O)N[C@H](Cc1c[nH]c2ccccc12)C(=O)N[C@H](CC(=O)O)C(=O)N[C@H](Cc1c[nH]c2ccccc12)C(=O)N[C@@H](C(=O)N[C@H](CS)C(=O)N[C@H](CCC(=O)O)C(=O)N[C@@H](C(=O)N[C@H](CC(C)C)C(=O)N[C@H](CO)C(=O)N[C@H](CC(=O)O)C(=O)N[C@H](Cc1ccccc1)C(=O)N[C@H](CCCCN)C(=O)O)C(C)C)[C@H](C)CC [Peptide 346-002, swlrdiwdwicevlsdfk] (H-[dS][dW][dL][dR][dD][dI][dW][dD][dW][dI][dC][dE][dV][dL][dS][dD][dF][dK]-OH; N-terminus and C-terminus assumed)",pEC50,"[1]; 2019-nCoV/USA-WA1/2020 strain, 48 h",4.89
"CC[C@H](C)[C@H](NC(=O)[C@H](CC(C)C)NC(=O)[C@H](CC(=O)O)NC(=O)[C@@H](NC(=O)[C@H](Cc1c[nH]c2ccccc12)NC(=O)[C@H](CC(=O)O)NC(=O)[C@H](CCCNC(=N)N)NC(=O)[C@H](Cc1c[nH]c2ccccc12)NC(=O)[C@@H](NC(=O)[C@@H](N)CO)[C@@H](C)CC)C(C)C)C(=O)N[C@@H](CS)C(=O)N[C@@H](CCC(=O)O)C(=O)N[C@@H](Cc1ccccc1)C(=O)N[C@@H](CC(C)C)C(=O)N[C@@H](CO)C(=O)N[C@@H](CC(=O)O)C(=O)N[C@@H](Cc1c[nH]c2ccccc12)C(=O)N[C@@H](CCCCN)C(=O)O [Peptide 346-007, SIWRDWVDLICEFLSDWK] (H-SIWRDWVDLICEFLSDWK-OH; N-terminus and C-terminus assumed)",potency relative to the other peptides tested,[1],ca. double the potency of the other peptides tested
CCN(CCO)CCCC(C)Nc1ccnc2cc(Cl)ccc12 (stereo not drawn) [hydroxychloroquine],treatment outcome in SARS-CoV-2 / COVID-19 patients,SARS-CoV-2,failed
same,patient morbidity risk,SARS-CoV-2,increased patient morbidity risk
CCN(CC)CCCC(C)Nc1ccnc2cc(Cl)ccc12 (stereo not drawn) [chloroquine],treatment outcome in SARS-CoV-2 / COVID-19 patients,SARS-CoV-2,failed
same,patient morbidity risk,SARS-CoV-2,increased patient morbidity risk
"CC[C@H](C)[C@H](NC(=O)[C@H](CC(=O)O)NC(=O)[C@H](CCCNC(=N)N)NC(=O)[C@H](CC(C)C)NC(=O)[C@H](Cc1c[nH]c2ccccc12)NC(=O)[C@@H](N)CO)C(=O)N[C@@H](Cc1c[nH]c2ccccc12)C(=O)N[C@@H](CC(=O)O)C(=O)N[C@@H](Cc1c[nH]c2ccccc12)C(=O)N[C@H](C(=O)N[C@@H](CS)C(=O)N[C@@H](CCC(=O)O)C(=O)N[C@H](C(=O)N[C@@H](CC(C)C)C(=O)N[C@@H](CO)C(=O)N[C@@H](CC(=O)O)C(=O)N[C@@H](Cc1ccccc1)C(=O)N[C@@H](CCCCN)C(=O)O)C(C)C)[C@@H](C)CC [Peptide 346-001, SWLRDIWDWICEVLSDFK] (H-SWLRDIWDWICEVLSDFK-OH; N-terminus and C-terminus assumed)",antiviral activity against HIV-1 (in vitro HIV-1 inhibition),[2],effective against HIV-1
same,reduction on viral copy numbers,[3]; 50 μM dosing concentration,> 5 orders of magnitude
same,reduction on viral copy numbers,[3]; 125 μM dosing concentration,> 7 orders of magnitude
